Data set [1] relates to Acinetobacter baumannii. The data set can be described thus: Antimicrobial activity against Acinetobacter baumannii assessed as susceptible isolate by broth dilution method. It counts as functional. For orientation: Dilution methods test growth across graded concentrations, often in twofold steps.
Data set [2] concerns Acinetobacter baumannii. In words: Antimicrobial activity against Acinetobacter baumannii assessed as resistant isolate by broth dilution method. The format is functional.
The subject of data set [3] is Acinetobacter baumannii. In words: Antimicrobial activity against Acinetobacter baumannii by broth dilution method. The format is functional.
In data set [4] the test system is Acinetobacter baumannii. In words: Antimicrobial activity against Acinetobacter baumannii assessed as resistant isolate by broth dilution method in presence of beta-lactamase inhibitor Sulbactam. The format is functional.
Data set [5] has as its system Acinetobacter baumannii. In words: Antimicrobial activity against Acinetobacter baumannii by broth dilution method in presence of beta-lactamase inhibitor Sulbactam. It counts as functional.
Data set [6] deals with Acinetobacter baumannii. In words: Antimicrobial activity against Acinetobacter baumannii assessed as susceptible isolate by broth dilution method in presence of beta-lactamase inhibitor Sulbactam. It counts as functional.
Data set [7] concerns Acinetobacter baumannii. The data set can be described thus: Antimicrobial activity against Acinetobacter baumannii assessed as susceptible isolate by broth dilution method in presence of cilastatin. It counts as functional.
The subject of data set [8] is Acinetobacter baumannii. In words: Antimicrobial activity against Acinetobacter baumannii by broth dilution method in presence of cilastatin. The format is functional.
Data set [9] has as its system Acinetobacter baumannii. In words: Antimicrobial activity against Acinetobacter baumannii assessed as resistant isolate by broth dilution method in presence of cilastatin. The format is functional.
Data set [10] deals with Homo sapiens. In words: Cmax in patient at 225 mg, iv every 12 hrs for 2 days. It counts as ADME, organism-based. The arrangement: dose 225 mg, route intravenous. The following applies: in vivo.
The test system of data set [11] is Homo sapiens. The data set can be described thus: Cmax in patient at 225 mg, iv every 8 hrs for 2 days. It counts as ADME, organism-based. Also on record: dose 225 mg, route intravenous. The following applies: in vivo.
Data set [12] concerns Acinetobacter baumannii. In words: Antimicrobial activity against Acinetobacter baumannii assessed as mutant prevention concentration require for 90% of isolates. The format is functional, organism-based.
For data set [13], the system named is Acinetobacter baumannii. In words: Ratio of mutant prevention concentration for Acinetobacter baumannii to MIC for Acinetobacter baumannii. The format is functional, organism-based.
Data set [14] has as its system Acinetobacter baumannii. The data set can be described thus: Antimicrobial activity against Acinetobacter baumannii assessed as mutant prevention concentration. It counts as functional, organism-based.

Converted amounts (≈) assume the structure as drawn.

This note sets out measurements from ChEMBL document CHEMBL1649327, “In vitro antimicrobial activity and mutant prevention concentration of colistin against Acinetobacter baumannii” (Antimicrob Agents Chemother, 2010).

Consider `CO/N=C(\C(=O)N[C@@H]1C(=O)N2C(C(=O)[O-])=C(C[N+]3(C)CCCC3)CS[C@H]12)c1csc(N)n1`, for which the Activity in the data set with Acinetobacter baumannii [1] came to 15.7%; in the data set on Acinetobacter baumannii [2], 81.4%.

As for `NCC[C@H](O)C(=O)N[C@@H]1C[C@H](N)[C@@H](O[C@H]2O[C@H](CN)[C@@H](O)[C@H](O)[C@H]2O)[C@H](O)[C@H]1O[C@H]1O[C@H](CO)[C@@H](O)[C@H](N)[C@H]1O` [AMIKACIN], the Activity is listed as 28.6% with Acinetobacter baumannii [1] and 71.4% in the data set on Acinetobacter baumannii [2]. In the data set with Acinetobacter baumannii [3], the MIC50 (usually the lowest concentration that inhibits either 50% of growth or 50% of the strains tested, depending on the study) is above 128 µg/mL. Also, in the data set on Acinetobacter baumannii [3], the MIC90 (in general, the lowest concentration that inhibits either 90% of growth or 90% of the strains tested, depending on the study) is above 128 µg/mL.

For the molecule `CC1(C)S[C@@H]2[C@H](NC(=O)[C@H](N)c3ccccc3)C(=O)N2[C@H]1C(=O)O` [AMPICILLIN], the Activity in the data set on Acinetobacter baumannii [4] turned out to be 81.4%. In the data set on Acinetobacter baumannii [5], the MIC50 worked out at 128 µg/mL and the MIC90 is above 128 µg/mL.

For the molecule `CCN1CCN(C(=O)N[C@@H](C(=O)N[C@@H]2C(=O)N3C(C(=O)O)=C(CSc4nnnn4C)CS[C@H]23)c2ccc(O)cc2)C(=O)C1=O` [CEFOPERAZONE], the Activity in the data set on Acinetobacter baumannii [4] is reported as 81.4%. In the data set on Acinetobacter baumannii [5], the MIC50 is above 128 µg/mL and the MIC90 is above 128 µg/mL. In the data set on Acinetobacter baumannii [6], the Activity turned out to be 17.2%.

For `CC(C)(O/N=C(\C(=O)N[C@@H]1C(=O)N2C(C(=O)[O-])=C(C[n+]3ccccc3)CS[C@H]12)c1csc(N)n1)C(=O)O` [CEFTAZIDIME], the results for the Activity with Acinetobacter baumannii [1] and in the data set on Acinetobacter baumannii [2] were 17.2% and 77.1%, respectively. This molecule also came in with an MIC50 in the data set with Acinetobacter baumannii [3] above 128 µg/mL. This molecule also displayed an MIC90 against Acinetobacter baumannii [3] above 128 µg/mL.

On to `O=C(O)c1cn(C2CC2)c2cc(N3CCNCC3)c(F)cc2c1=O` [CIPROFLOXACIN], for which the Activity amounted to 15.7% in the data set on Acinetobacter baumannii [1] and 82.9% with Acinetobacter baumannii [2].

In the case of `C[C@@H](O)[C@H]1C(=O)N2C(C(=O)O)=C(SCCNC=N)C[C@H]12` [IMIPENEM ANHYDROUS], the Activity in the data set on Acinetobacter baumannii [7] is on record as 21.4%; with Acinetobacter baumannii [9], 75.7%. Also, the MIC50 in the data set with Acinetobacter baumannii [8] stood at 16 µg/mL. In addition, in the data set on Acinetobacter baumannii [8], the MIC90 amounted to 128 µg/mL.

As to `C[C@H]1COc2c(N3CCN(C)CC3)c(F)cc3c(=O)c(C(=O)O)cn1c23.C[C@H]1COc2c(N3CCN(C)CC3)c(F)cc3c(=O)c(C(=O)O)cn1c23.O` [LEVOFLOXACIN], the results for the Activity with Acinetobacter baumannii [1] and with Acinetobacter baumannii [2] were 38.6% and 32.8%, respectively. For the same molecule, the MIC50 in the data set with Acinetobacter baumannii [3] was determined as 4 µg/mL. This molecule displayed an MIC90 in the data set with Acinetobacter baumannii [3] of 16 µg/mL.

For `C[C@@H](O)[C@H]1C(=O)N2C(C(=O)O)=C(S[C@@H]3CN[C@H](C(=O)N(C)C)C3)[C@H](C)[C@H]12` [MEROPENEM], the Activity in the data set on Acinetobacter baumannii [1] is 22.9%. In addition, the Activity with Acinetobacter baumannii [2] was determined as 77.1%. Also, in the data set on Acinetobacter baumannii [3], the MIC50 amounted to 32 µg/mL (≈ 83.4 µM) and the MIC90 turned out to be 64 µg/mL (≈ 167 µM).

For the molecule `CCN[C@@H]1C[C@H](N)[C@@H](O[C@H]2OC(CN)=CC[C@H]2N)[C@H](O)[C@H]1O[C@H]1OC[C@](C)(O)[C@H](NC)[C@H]1O` [NETILMICIN], the Activity was determined as 20% in the data set on Acinetobacter baumannii [1] and 75.7% in the data set with Acinetobacter baumannii [2]. The molecule also had an MIC50 against Acinetobacter baumannii [3] above 128 µg/mL. Also, the MIC90 against Acinetobacter baumannii [3] is above 128 µg/mL.

As to `CCN1CCN(C(=O)N[C@@H](C(=O)N[C@@H]2C(=O)N3[C@@H]2SC(C)(C)[C@@H]3C(=O)O)c2ccccc2)C(=O)C1=O` [PIPERACILLIN], the Activity is reported as 71.4% in the data set with Acinetobacter baumannii [4], 10% in the data set on Acinetobacter baumannii [1], 82.9% in the data set on Acinetobacter baumannii [2] and 17.2% in the data set on Acinetobacter baumannii [6]. Further, the MIC50 in the data set on Acinetobacter baumannii [5] was above 128 µg/mL; in the data set with Acinetobacter baumannii [3] it was 128 µg/mL (≈ 247 µM). The MIC90 in the data set with Acinetobacter baumannii [5] and in the data set on Acinetobacter baumannii [3] was above 128 µg/mL throughout.

As for COLISTIN [listing 1 of 2 here], the peak concentration (Cmax) in the data set on Homo sapiens [10] and in the data set on Homo sapiens [11] was 2930 ng/mL throughout.

As for COLISTIN [listing 2 of 2 here], the Activity in the data set on Acinetobacter baumannii [1] turned out to be 100%; in the data set on Acinetobacter baumannii [2], 0%. In the data set with Acinetobacter baumannii [3], the MIC50 was found to be 1 µg/mL. In addition, the MIC90 against Acinetobacter baumannii [3] is 1 µg/mL. Besides, the MPC with Acinetobacter baumannii [12] and with Acinetobacter baumannii [14] was above 128 µg/mL in each case. Moreover, the Ratio with Acinetobacter baumannii [13] was determined as 128.
